Each block holds one compound with its values, some of them ahead of it.
Target: T1, DβH (Homo sapiens, UniProt P09172)
T1 construct: reaction mixture (total volume 500 μl) contained: cellular homogenate (75 μg total protein); host or cells: SK-N-SH cell homogenate
T1 sequence (P09172 1-617): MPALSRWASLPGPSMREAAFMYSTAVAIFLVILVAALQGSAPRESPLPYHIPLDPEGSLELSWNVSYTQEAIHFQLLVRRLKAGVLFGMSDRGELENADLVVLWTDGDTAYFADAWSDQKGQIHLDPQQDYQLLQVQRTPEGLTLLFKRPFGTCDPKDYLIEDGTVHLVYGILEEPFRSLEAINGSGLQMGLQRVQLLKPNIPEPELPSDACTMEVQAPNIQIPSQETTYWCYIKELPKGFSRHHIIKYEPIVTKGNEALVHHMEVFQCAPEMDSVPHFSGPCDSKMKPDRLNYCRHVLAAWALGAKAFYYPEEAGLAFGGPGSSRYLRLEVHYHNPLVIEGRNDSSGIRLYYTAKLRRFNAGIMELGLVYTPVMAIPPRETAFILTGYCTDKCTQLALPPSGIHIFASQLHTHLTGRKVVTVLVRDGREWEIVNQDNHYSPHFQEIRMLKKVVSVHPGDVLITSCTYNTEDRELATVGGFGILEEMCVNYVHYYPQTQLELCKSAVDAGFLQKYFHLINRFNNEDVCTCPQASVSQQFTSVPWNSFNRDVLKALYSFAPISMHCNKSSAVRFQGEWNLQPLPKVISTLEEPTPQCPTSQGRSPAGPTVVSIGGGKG
Test: DβH inhibition cell assay (SK-N-SH cellular homogenates, tyramine to octopamine)
Type: biochemical
Details: SK-N-SH cell homogenate; for remaining activity at 0.1 µM: inhibitor 0.1 μM, read-out: DβH activity in % of Ctrl (0.1 μM); for remaining activity at 1 µM: inhibitor 1 μM, read-out: DβH activity in % of Ctrl (1 μM); for remaining activity at 10 µM: inhibitor 10 μM, read-out: DβH activity in % of Ctrl (10 μM)
Procedure: The ability of a compound to inhibit DβH activity may be assessed using the following cell assay. […] . […] Fetal bovine serum was removed from cells for 4 h prior to collection.
For the preparation of cellular homogenates, media was removed and cell monolayers were washed with 50 mM Tris-HCl pH 7.4. Cells were subsequently scrapped off the flasks and were resuspended in 50 mM Tris pH 7.4. Cell suspensions were homogenized with SilentCrusher M (Heidolph) for a short stroke and resultant homogenates were aliquoted and stored frozen at −80° C.
Total protein was quantified in cellular homogenates with BioRad Protein Assay (BioRad) using a standard curve of BSA (50-250 μg/mL).
DβH activity was measured by a modification of the method of Nagatsu and Udenfriend (Nagatsu, T. and S. Udenfriend: “Photometric assay of dopamine-hydroxylase activity in human blood.” Clin. Chem. 18(9): 980-3, 1972) which is based on the enzymatic hydroxylation of tyramine into octopamine. The octopamine formed is subsequently oxidized to p-hydroxybenzaldehyde and measured by spectrophotometry. In brief, reaction mixture (total volume 500 μl) contained: cellular homogenate (75 μg total protein) sodium acetate pH 5.0 (200 mM), NEM (30 mM), CuSO4 (5 μM), catalase aqueous solution (0.5 mg/mL), pargyline-HCl (1 mM), sodium fumarate (10 mM), ascorbic acid (10 mM), inhibitor or vehicle and tyramine (25 mM). After a 10 min pre-incubation period at 37° C., the reaction was initiated by the addition of tyramine. Reaction was carried out for 45 min at 37° C. before termination with 50 μl PCA (2 M).
Samples were centrifuged for 3 min at 16100 g and supernatants were subjected to solid phase extraction. Solid phase extraction was performed using either SPE cartridges ISOLUTE SCX-3 (100 mg, 1 mL) or SPE 2 mL fixed 96 well plates ISOLUTE SCX-3 (100 mg) previously equilibrated with MilliQ water. Columns/plates were centrifuged at 150 g for 2 min. Eluate was discarded and matrix was washed with 1 mL of MilliQ water after which octopamine was eluted with 2×0.25 mL ammonium hydroxide (4 M). The oxidation of octopamine to p-hydroxybenzaldehyde was carried out for 6 min with 100 μl sodium periodate (2%) and was stopped with 100 μl sodium metabisulfite (10%). Absorbance was measured at 330 nm on a Spectramax microplate reader (Molecular Devices, Sunnyvale, Calif.). All enzymatic reactions were performed in duplicate. Results are reported in the table below as activity in % of control at the inhibitor concentration tested.

- remaining activity at 0.1 µM: 89%
- remaining activity at 1 µM: 53.8%
- remaining activity at 10 µM: 3.9%
SMILES: NC(=S)N1CCC(c2ccc(F)cc2)C1 (stereo not drawn) [Example 3, 3-(4-Fluorophenyl)pyrrolidine-1-carbothioamide]

- remaining activity at 10 µM: 18.6%
SMILES: NC(=S)N1CCCC(c2ccccc2)C1 (stereo not drawn) [Example 4, 3-phenylpiperidine-1-carbothioamide]

- remaining activity at 0.1 µM: 83.2%
- remaining activity at 10 µM: 0.8%
SMILES: NC(=S)N1CCC(c2ccc(F)cc2F)C1 (stereo not drawn) [Example 5, 3-(2,4-difluorophenyl)pyrrolidine-1-carbothioamide]

- remaining activity at 0.1 µM: 97.6%
- remaining activity at 1 µM: 50.3%
- remaining activity at 10 µM: 3.3%
SMILES: NC(=S)N1CC[C@@H](c2ccccc2)C1 [Example 6, (S)-3-phenylpyrrolidine-1-carbothioamide]

- remaining activity at 0.1 µM: 86.4%
- remaining activity at 1 µM: 31.4%
- remaining activity at 10 µM: 1.5%
SMILES: NC(=S)N1CC[C@H](c2ccccc2)C1 [Example 11, (R)-3-phenylpyrrolidine-1-carbothioamide]

- remaining activity at 10 µM: 7.2%
SMILES: Cc1ccccc1C1CCN(C(N)=S)C1 (stereo not drawn) [Example 13, 3-o-tolylpyrrolidine-1-carbothioamide]

- remaining activity at 10 µM: 13.1%
SMILES: Cc1cccc(C2CCN(C(N)=S)C2)c1 (stereo not drawn) [Example 14, 3-m-tolylpyrrolidine-1-carbothioamide]

- remaining activity at 1 µM: 55.5%
SMILES: NC(=S)N1CCC(c2ccoc2)C1 (stereo not drawn) [Example 16, 3-(furan-3-yl)pyrrolidine-1-carbothioamide]

- remaining activity at 0.1 µM: 57%
- remaining activity at 1 µM: 6.4%
SMILES: NC(=S)N1CCC(c2cc(F)ccc2F)C1 (stereo not drawn) [Example 18, 3-(2,5-difluorophenyl)pyrrolidine-1-carbothioamide]

- remaining activity at 1 µM: 44.8%
SMILES: NC(=S)N1CCC(c2ccc(F)c(F)c2)C1 (stereo not drawn) [Example 20, 3-(3,4-difluorophenyl)pyrrolidine-1-carbothioamide]

- remaining activity at 1 µM: 27.4%
SMILES: NC(=S)N1CCC(c2ccc(F)c(F)c2F)C1 (stereo not drawn) [Example 22, 3-(2,3,4-trifluorophenyl)pyrrolidine-1-carbothioamide]

Second part, the compound before the results:

SMILES: NC(=S)N1CCC(c2cc(F)c(F)cc2F)C1 (stereo not drawn) [Example 19, 3-(2,4,5-trifluorophenyl)pyrrolidine-1-carbothioamide]
- remaining activity at 1 µM: 33.4%

SMILES: NC(=S)N1CC[C@@H](c2c(F)cc(F)cc2F)C1 [Example 21, (S)-3-(2,4,6-trifluorophenyl)pyrrolidine-1-carbothioamide]
- remaining activity at 1 µM: 17.5%

SMILES: NC(=S)N1C[C@@H]2C[C@]2(c2cccs2)C1 [Example 28, (1R,5R)-1-(thiophen-2-yl)-3-azabicyclo[3.1.0]hexane-3-carbothioamide]
- remaining activity at 0.1 µM: 0.2%
- remaining activity at 1 µM: 3.3%

SMILES: NC(=S)N1CCC(c2c(F)c(F)c(F)c(F)c2F)C1 (stereo not drawn) [Example 29, 3-(perfluorophenyl)pyrrolidine-1-carbothioamide]
- remaining activity at 0.1 µM: 26.9%

SMILES: CNC(=S)N1CCC(c2c(F)c(F)cc(F)c2F)C1 (stereo not drawn) [Example 33, N-methyl-3-(2,3,5,6-tetrafluorophenyl)pyrrolidine-1-carbothioamide]
- remaining activity at 0.1 µM: 11.8%
- remaining activity at 1 µM: 1%

SMILES: NC(=S)N1C[C@H]2C[C@@]2(c2cc(F)cc(F)c2)C1 [Example 35, (1R,5S)-1-(3,5-difluorophenyl)-3-azabicyclo[3.1.0]hexane-3-carbothioamide]
- remaining activity at 0.1 µM: 95%
- remaining activity at 1 µM: 34.3%
- remaining activity at 10 µM: 0%

SMILES: NC(=S)N1C[C@@H]2C[C@]2(c2cc(F)cc(F)c2)C1 [Example 36, (1S,5R)-1-(3,5-difluorophenyl)-3-azabicyclo[3.1.0]hexane-3-carbothioamide]
- remaining activity at 0.1 µM: 4%
- remaining activity at 1 µM: 0%

SMILES: CCCNC(=S)N1C[C@@H]2C[C@]2(c2cc(F)cc(F)c2)C1 [Example 39, (1S,5R)-1-(3,5-Difluorophenyl)-N-propyl-3-azabicyclo[3.1.0]hexane-3-carbothioamide]
- remaining activity at 0.1 µM: 40.4%
- remaining activity at 1 µM: 0.3%

Source: patent US10975083B2, “Blood-brain barrier-penetrant dopamine-β-hydroxylase inhibitors” (BIAL—PORTELA & Cᵃ, S.A., priority 2016, dated 2021)
